Patent US20250230193A1, “CYCLIC COMPOUND HAVING SELECTIVE KRAS INHIBITORY EFFECT ON HRAS AND NRAS” (CHUGAI SEIYAKU KABUSHIKI KAISHA, priority 2022, published 2025)

Columns and labels:
[1] = biological target: GDP-bound NRAS wild-type protein (Homo sapiens, UniProt P01111); experiment: Binding to NRAS by surface plasmon resonance (SPR), Single Cycle Kinetics; details: KD ratio NRAS/KRAS, SPR
[2] = biological target: GDP-bound HRAS wild-type protein (Homo sapiens, UniProt P01112); experiment: Binding to HRAS by surface plasmon resonance (SPR), Single Cycle Kinetics; details: KD ratio HRAS/KRAS, SPR
Sequence of GDP-bound HRAS wild-type protein (P01112 whole entry): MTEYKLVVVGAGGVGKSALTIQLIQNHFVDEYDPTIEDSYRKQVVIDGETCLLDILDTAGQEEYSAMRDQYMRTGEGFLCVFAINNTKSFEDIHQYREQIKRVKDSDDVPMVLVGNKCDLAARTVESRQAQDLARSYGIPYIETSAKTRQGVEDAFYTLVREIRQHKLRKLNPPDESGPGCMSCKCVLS

Sequence of GDP-bound NRAS wild-type protein (P01111 whole entry): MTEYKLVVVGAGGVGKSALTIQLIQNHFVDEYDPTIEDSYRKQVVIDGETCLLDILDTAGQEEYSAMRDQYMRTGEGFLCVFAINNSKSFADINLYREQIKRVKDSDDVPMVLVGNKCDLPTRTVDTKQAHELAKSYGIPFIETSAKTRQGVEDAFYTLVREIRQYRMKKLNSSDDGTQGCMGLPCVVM

| Compound | NRAS/KRAS (ratio of KD value with respect to GDP-bound NRAS wild-type protein to KD value with respect to KRAS) [1] | HRAS/KRAS (ratio of KD value with respect to GDP-bound HRAS wild-type protein to KD value with respect to KRAS) [2] |
| --- | --- | --- |
| CC[C@H](C)[C@@H]1NC(=O)[C@H](CC(C)C)N(C)C(=O)C[C@@H](C(=O)N2CCOCC2)N(C)C(=O)[C@H](C2CCCC2)N(C)C(=O)C2(CCCC2)NC(=O)[C@@H]2CCCN2C(=O)[C@H](CCc2ccc(C(F)(F)F)c(Cl)c2)NC(=O)CN(C)C(=O)[C@H](Cc2ccc(Cl)cc2)N2C/C=C\CC[C@@H](C2=O)N(C)C(=O)CN(C)C1=O [PP0608] | C (A compound having a KD ratio of 0.1 or more and less than 3 is denoted as C) | B (a compound having 3 or more and less than 10 is denoted as B) |
| CC[C@H](C)[C@@H]1NC(=O)[C@H](CC(C)C)N(C)C(=O)C[C@@H](C(=O)N2CCOCC2)N(C)C(=O)[C@H](C2CCCC2)N(C)C(=O)C2(CCCC2)NC(=O)[C@@H]2CCCN2C(=O)[C@H](CCc2ccc(C(F)(F)F)c(Cl)c2)NC(=O)CN(C)C(=O)[C@H](Cc2ccc(OC)cc2)N2C/C=C\CC[C@@H](C2=O)N(C)C(=O)CN(C)C1=O [PP0609] | B (a compound having 3 or more and less than 10 is denoted as B) | B (a compound having 3 or more and less than 10 is denoted as B) |
| CC[C@H](C)[C@@H]1NC(=O)[C@H](CC(C)C)N(C)C(=O)C[C@@H](C(=O)N2CCOCC2)N(C)C(=O)[C@H](C2CCCC2)N(C)C(=O)C2(CCCC2)NC(=O)[C@@H]2CCCN2C(=O)[C@H](CCc2ccc(C(F)(F)F)c(Cl)c2)NC(=O)CN(C)C(=O)[C@H](Cc2ccc(OC(F)(F)F)cc2)N2C/C=C\CC[C@@H](C2=O)N(C)C(=O)CN(C)C1=O [PP0610] | B (a compound having 3 or more and less than 10 is denoted as B) | B (a compound having 3 or more and less than 10 is denoted as B) |
| CC[C@H](C)[C@@H]1NC(=O)[C@H](CC(C)C)N(C)C(=O)C[C@@H](C(=O)N2CCOCC2)N(C)C(=O)[C@H](C2CCCC2)N(C)C(=O)C2(CCCC2)NC(=O)[C@@H]2CCCN2C(=O)[C@H](CCc2ccc(C(F)(F)F)c(Cl)c2)NC(=O)CN(C)C(=O)[C@H](Cc2ccccc2)N2CCCCC[C@@H](C2=O)N(C)C(=O)CN(C)C1=O [PP0611] | B (a compound having 3 or more and less than 10 is denoted as B) | B (a compound having 3 or more and less than 10 is denoted as B) |
| CC[C@H](C)[C@@H]1NC(=O)[C@H](CC(C)C)N(C)C(=O)C[C@@H](C(=O)N2CCOCC2)N(C)C(=O)[C@H](C2CCCC2)N(C)C(=O)C2(CCCC2)NC(=O)[C@@H]2CCCN2C(=O)[C@H](CCc2ccc(C(F)(F)F)c(Cl)c2)NC(=O)CN(C)C(=O)[C@H](Cc2ccc(F)cc2)N2CCCCC[C@@H](C2=O)N(C)C(=O)CN(C)C1=O [PP0612] | B (a compound having 3 or more and less than 10 is denoted as B) | B (a compound having 3 or more and less than 10 is denoted as B) |
| CC[C@H](C)[C@@H]1NC(=O)[C@H](CC(C)C)N(C)C(=O)C[C@@H](C(=O)N2CCOCC2)N(C)C(=O)[C@H](C2CCCC2)N(C)C(=O)C2(CCCC2)NC(=O)[C@@H]2CCCN2C(=O)[C@H](CCc2ccc(C(F)(F)F)c(Cl)c2)NC(=O)CN(C)C(=O)[C@H](Cc2ccc(Cl)cc2)N2CCCCC[C@@H](C2=O)N(C)C(=O)CN(C)C1=O [PP0613] | B (a compound having 3 or more and less than 10 is denoted as B) | B (a compound having 3 or more and less than 10 is denoted as B) |
| CC[C@H](C)[C@@H]1NC(=O)[C@H](CC(C)C)N(C)C(=O)C[C@@H](C(=O)N2CCOCC2)N(C)C(=O)[C@H](C2CCCC2)N(C)C(=O)C2(CCCC2)NC(=O)[C@@H]2CCCN2C(=O)[C@H](CCc2ccc(C(F)(F)F)c(Cl)c2)NC(=O)CN(C)C(=O)[C@H](Cc2ccc(OC)cc2)N2CCCCC[C@@H](C2=O)N(C)C(=O)CN(C)C1=O [PP0614] | B (a compound having 3 or more and less than 10 is denoted as B) | B (a compound having 3 or more and less than 10 is denoted as B) |
| CC[C@H](C)[C@@H]1NC(=O)[C@H](CC(C)C)N(C)C(=O)C[C@@H](C(=O)N2CCOCC2)N(C)C(=O)[C@H](C2CCCC2)N(C)C(=O)C2(CCCC2)NC(=O)[C@@H]2CCCN2C(=O)[C@H](CCc2ccc(C(F)(F)F)c(Cl)c2)NC(=O)CN(C)C(=O)[C@H](Cc2ccc(OC(F)(F)F)cc2)N2CCCCC[C@@H](C2=O)N(C)C(=O)CN(C)C1=O [PP0615] | B (a compound having 3 or more and less than 10 is denoted as B) | B (a compound having 3 or more and less than 10 is denoted as B) |
| CC[C@H](C)[C@@H]1NC(=O)[C@H](CC(C)C)N(C)C(=O)C[C@@H](C(=O)N(C)C)N(C)C(=O)[C@H](C2CCCC2)N(C)C(=O)C2(CCCC2)NC(=O)[C@@H]2CCCN2C(=O)[C@H](CCc2ccc(C(F)(F)F)c(Cl)c2)NC(=O)CN(C)C(=O)[C@H](Cc2ccc(C)cc2)N2CC=C(C)C[C@@H](C2=O)N(C)C(=O)CN(C)C1=O [PP0620] | C (A compound having a KD ratio of 0.1 or more and less than 3 is denoted as C) | C (A compound having a KD ratio of 0.1 or more and less than 3 is denoted as C) |
| CC[C@H](C)[C@@H]1NC(=O)[C@H](CC(C)C)N(C)C(=O)C[C@@H](C(=O)N(C)C)N(C)C(=O)[C@H](C2CCCC2)N(C)C(=O)C2(CCCC2)NC(=O)[C@@H]2CCCN2C(=O)[C@H](CCc2ccc(C(F)(F)F)c(Cl)c2)NC(=O)CN(C)C(=O)[C@H](Cc2ccc(C(F)(F)F)cc2)N2CC=CCOC[C@H](C2=O)N(C)C(=O)CN(C)C1=O [PP0628] | C (A compound having a KD ratio of 0.1 or more and less than 3 is denoted as C) | C (A compound having a KD ratio of 0.1 or more and less than 3 is denoted as C) |
| CC[C@H](C)[C@@H]1NC(=O)[C@H](CC(C)C)N(C)C(=O)C[C@@H](C(=O)N(C)C)N(C)C(=O)[C@H](C2CCCC2)N(C)C(=O)C2(CCCC2)NC(=O)[C@@H]2CCCN2C(=O)[C@H](CCc2ccc(C(F)(F)F)c(Cl)c2)NC(=O)CN(C)C(=O)[C@H](Cc2ccc(C)cc2)N2CC=CCOC[C@H](C2=O)N(C)C(=O)CN(C)C1=O [PP0629] | B (a compound having 3 or more and less than 10 is denoted as B) | C (A compound having a KD ratio of 0.1 or more and less than 3 is denoted as C) |
| CCO[C@@H]1C[C@H]2C(=O)NC3(CCC3)C(=O)N(C)[C@@H](C3CCCC3)C(=O)N(CC)[C@H](C(=O)N(C)C)CC(=O)N(C)[C@@H](CC)C(=O)N[C@@H]([C@@H](C)CC)C(=O)N(C)CC(=O)N(C)[C@H]3CCCCCN(C3=O)[C@@H](Cc3ccc(C(F)(F)F)cc3)C(=O)N(C)CC(=O)N[C@@H](CCc3cc(F)c(C(F)(F)F)c(F)c3)C(=O)N2C1 [PP0633] | B (a compound having 3 or more and less than 10 is denoted as B) | B (a compound having 3 or more and less than 10 is denoted as B) |
| CCO[C@@H]1C[C@H]2C(=O)NC3(CCC3)C(=O)N(C)[C@@H](C3CCCC3)C(=O)N(CCC3CCC3)[C@H](C(=O)N(C)C)CC(=O)N(C)[C@@H](CC)C(=O)N[C@@H]([C@@H](C)CC)C(=O)N(C)CC(=O)N(C)[C@H]3CCCCCN(C3=O)[C@@H](Cc3ccc(C(F)(F)F)cc3)C(=O)N(C)CC(=O)N[C@@H](CCc3cc(F)c(C(F)(F)F)c(F)c3)C(=O)N2C1 [PP0635] | B (a compound having 3 or more and less than 10 is denoted as B) | B (a compound having 3 or more and less than 10 is denoted as B) |
| CCO[C@@H]1C[C@H]2C(=O)NC3(CCC3)C(=O)N(C)[C@@H](C3CCCC3)C(=O)N(CCC3CCCC3)[C@H](C(=O)N(C)C)CC(=O)N(C)[C@@H](CC)C(=O)N[C@@H]([C@@H](C)CC)C(=O)N(C)CC(=O)N(C)[C@H]3CCCCCN(C3=O)[C@@H](Cc3ccc(C(F)(F)F)cc3)C(=O)N(C)CC(=O)N[C@@H](CCc3cc(F)c(C(F)(F)F)c(F)c3)C(=O)N2C1 [PP0636] | A (a compound having 10 or more and less than 20 is denoted as A) | A (a compound having 10 or more and less than 20 is denoted as A) |
| CCO[C@@H]1C[C@H]2C(=O)NC3(CCC3)C(=O)N(C)[C@@H](C3CCCC3)C(=O)N(CCc3ccccc3)[C@H](C(=O)N(C)C)CC(=O)N(C)[C@@H](CC)C(=O)N[C@@H]([C@@H](C)CC)C(=O)N(C)CC(=O)N(C)[C@H]3CCCCCN(C3=O)[C@@H](Cc3ccc(C(F)(F)F)cc3)C(=O)N(C)CC(=O)N[C@@H](CCc3cc(F)c(C(F)(F)F)c(F)c3)C(=O)N2C1 [PP0637] | B (a compound having 3 or more and less than 10 is denoted as B) | B (a compound having 3 or more and less than 10 is denoted as B) |
| CCO[C@@H]1C[C@H]2C(=O)NC3(CCC3)C(=O)N(C)[C@@H](C3CCCC3)C(=O)N(CC)[C@H](C(=O)N3CCOCC3)CC(=O)N(C)[C@@H](CC(C)C)C(=O)N[C@@H]([C@@H](C)CC)C(=O)N(C)CC(=O)N(C)[C@H]3CCCCCN(C3=O)[C@@H](Cc3ccc(C(F)(F)F)cc3)C(=O)N(C)CC(=O)N[C@@H](CCc3cc(F)c(C(F)(F)F)c(F)c3)C(=O)N2C1 [PP0638] | B (a compound having 3 or more and less than 10 is denoted as B) | B (a compound having 3 or more and less than 10 is denoted as B) |
